According to patent US20070082339A1, “Methods and compositions for screening for HDAC inhibitory activity” (priority 2005, published 2007):
Square brackets hold non-standard residues; d marks the D form. Peptide text beside a SMILES is read from it. ξ: configuration not given here. Aoe(9ξ) = N[C@@H](CCCCCC(=O)C1CO1)C(=O)O; dPip = O=C(O)[C@H]1CCCCN1

What was measured:
[1] = tested on: RhoB promoter; assay: RhoB promoter deletion/mutation constructs, induction by TPX; assay type: cell-based; settings: following TPX treatment
Description: (§1) Furthermore, mutations in this CCAAT box reduced the ability of HDAC1 to confer repression of RhoB promoter activity. In addition, chromatin immunoprecipitation assays reveal that TPX increased the level of chromatin acetylation in the TPX-responsive region of the RhoB promoter containing the inverted CCAAT box. […] The global gene expression profiles of A549 cells following inhibition of HDAC with LAQ824 were determined by DNA microarray analysis.

[2] = molecular target: histone deacetylase 1 (Homo sapiens, UniProt Q13547); settings: Tauton et al. Science 272:408-411 (1996); cited from earlier work
[3] = tested on: RhoB promoter; assay: Chromatin immunoprecipitation assays; assay type: cell-based; settings: region containing the inverted CCAAT box
Description: as §1

Sequence of histone deacetylase 1 (Q13547 whole entry, species assumed): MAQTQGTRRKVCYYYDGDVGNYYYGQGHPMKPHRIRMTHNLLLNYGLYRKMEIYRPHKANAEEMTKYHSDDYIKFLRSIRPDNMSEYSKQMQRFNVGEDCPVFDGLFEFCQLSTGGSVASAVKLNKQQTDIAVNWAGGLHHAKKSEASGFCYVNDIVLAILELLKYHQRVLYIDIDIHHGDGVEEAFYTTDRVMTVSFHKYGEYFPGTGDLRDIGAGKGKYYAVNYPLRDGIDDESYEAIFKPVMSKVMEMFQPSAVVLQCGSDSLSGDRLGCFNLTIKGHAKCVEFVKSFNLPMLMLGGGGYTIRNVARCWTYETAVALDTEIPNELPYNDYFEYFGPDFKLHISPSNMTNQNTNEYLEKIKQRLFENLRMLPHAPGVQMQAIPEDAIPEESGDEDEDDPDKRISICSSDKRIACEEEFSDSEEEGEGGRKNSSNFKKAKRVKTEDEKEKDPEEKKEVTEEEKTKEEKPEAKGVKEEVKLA

SMILES: O=C(CCCCC[C@@H]1NC(=O)[C@H]2CCCCN2C(=O)[C@H](Cc2ccccc2)NC(=O)[C@H](Cc2ccccc2)NC1=O)C1CO1 (stereo partly drawn) [TPX, trapoxin A] (cyclo(FF[dPip][Aoe(9ξ)]))
- induction of expression from RhoB promoter deletion constructs [1]: induction of expression from all of these deletions is similar
- inhibition of histone deacetylase 1 [2]: potently inhibit
- level of chromatin acetylation in the TPX-responsive region of the RhoB promoter [3]: increased
